Tests used:
human CXCR3A = human CXCR3A (Homo sapiens (Human), UniProt P49682); assay: FLIPR assay; assay type: cell-based; conditions: CHO-K1 cells expressing the human CXCR3A coupled to Galpha(16); CXCL10 agonist 20 nM; Fluo-4-AM fluorescence; mean values if determined several times
In short: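 CHO-K1 cells expressing CXCR3A coupled to Gα16 were loaded with Fluo-4-AM for 1 h in Hepes-buffered HBSS, pH 7.4, with 5 mM probenecid. Compound dilutions were added on the FLIPR, followed by CXCL10 (added as a 20 nM solution). Baseline-subtracted peak fluorescence was fitted to a single-site curve for IC50.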

CXCR3 = CXCR3 (Homo sapiens (Human), UniProt P49682); assay: Receptor internalization assay; assay type: cell-based; conditions: human whole blood; final CXCL10 concentration 9 nM; 30 min 37° C.; CXCR3 cell surface expression on CD3 positive cells, flow cytometer; read-out: Internalization IC50
In short: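 In human whole blood, compounds were incubated with CXCL10 (9 nM final) for 30 min at 37 °C to drive receptor internalization, then stained with anti-CXCR3/CD3 antibodies and lysed of red cells. Flow cytometry measured mean surface CXCR3 fluorescence on CD3+ cells, and IC50 came from single-site dose-response fits.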

human CXCR3A, sequence (P49682 whole entry): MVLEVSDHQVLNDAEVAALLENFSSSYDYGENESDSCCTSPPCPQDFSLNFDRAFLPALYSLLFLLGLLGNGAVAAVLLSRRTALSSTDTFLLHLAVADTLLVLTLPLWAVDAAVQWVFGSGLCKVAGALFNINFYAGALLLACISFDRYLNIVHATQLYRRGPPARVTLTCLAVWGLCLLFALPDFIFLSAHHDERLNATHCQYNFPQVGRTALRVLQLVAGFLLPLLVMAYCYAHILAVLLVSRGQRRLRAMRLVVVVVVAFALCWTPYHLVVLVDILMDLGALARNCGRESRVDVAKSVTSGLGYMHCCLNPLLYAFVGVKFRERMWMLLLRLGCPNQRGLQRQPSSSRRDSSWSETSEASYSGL
CXCR3, sequence (P49682 whole entry): as above

SMILES: C[C@@H]1CN(c2sc(C(F)(F)F)nc2-c2nc3ccccc3[nH]2)CCN1C(=O)Cn1ccc(C(F)(F)F)n1 [Example 193, 1-{(R)-4-[4-(1H-Benzoimidazol-2-yl)-2-trifluoromethyl-thiazol-5-yl]-2-methyl-piperazin-1-yl}-2-(3-trifluoromethyl-pyrazol-1-yl)-ethanone]
- IC50 (human CXCR3A): 1 nM
- IC50 (CXCR3): 210 nM

SMILES: C[C@@H]1CN(c2sc(C(F)(F)F)nc2-c2nc3ccccc3[nH]2)CCN1C(=O)Cn1cncn1 [Example 194, 1-{(R)-4-[4-(1H-Benzoimidazol-2-yl)-2-trifluoromethyl-thiazol-5-yl]-2-methyl-piperazin-1-yl}-2-[1,2,4]triazol-1-yl-ethanone]
- IC50 (human CXCR3A): 8 nM
- IC50 (CXCR3): 1410 nM

SMILES: Cc1nnc(CC(=O)N2CCN(c3sc(C(F)(F)F)nc3-c3nc4ccccc4[nH]3)C[C@H]2C)o1 [Example 195, 1-{(R)-4-[4-(1H-Benzoimidazol-2-yl)-2-trifluoromethyl-thiazol-5-yl]-2-methyl-piperazin-1-yl}-2-(5-methyl-[1,3,4]oxadiazol-2-yl)-ethanone]
- IC50 (human CXCR3A): 8 nM
- IC50 (CXCR3): 2710 nM

SMILES: C[C@@H]1CN(c2sc(C(F)(F)F)nc2-c2nc3ccccc3[nH]2)CCN1C(=O)Cc1nnc(-c2ccccc2)o1 [Example 196, 1-{(R)-4-[4-(1H-Benzoimidazol-2-yl)-2-trifluoromethyl-thiazol-5-yl]-2-methyl-piperazin-1-yl}-2-(5-phenyl-[1,3,4]oxadiazol-2-yl)-ethanone]
- IC50 (human CXCR3A): 6 nM
- IC50 (CXCR3): 6560 nM

SMILES: C[C@@H]1CN(c2sc(C(F)(F)F)nc2-c2nc3ccccc3[nH]2)CCN1C(=O)Cn1nccn1 [Example 197, 1-{(R)-4-[4-(1H-Benzoimidazol-2-yl)-2-trifluoromethyl-thiazol-5-yl]-2-methyl-piperazin-1-yl}-2-[1,2,3]triazol-2-yl-ethanone]
- IC50 (human CXCR3A): 8 nM
- IC50 (CXCR3): 5310 nM

SMILES: COC(=O)c1ccn(CC(=O)N2CCN(c3sc(C(F)(F)F)nc3-c3nc4ccccc4[nH]3)C[C@H]2C)n1 [Example 198, 1-(2-{(R)-4-[4-(1H-Benzoimidazol-2-yl)-2-trifluoromethyl-thiazol-5-yl]-2-methyl-piperazin-1-yl}-2-oxo-ethyl)-1H-pyrazole-3-carboxylic acid methyl ester]
- IC50 (human CXCR3A): 2 nM
- IC50 (CXCR3): 6900 nM

SMILES: Cc1ccc(CC(=O)N2CCN(c3sc(C(F)(F)F)nc3-c3nc4ccccc4[nH]3)C[C@H]2C)cn1 [Example 199, 1-{(R)-4-[4-(1H-Benzoimidazol-2-yl)-2-trifluoromethyl-thiazol-5-yl]-2-methyl-piperazin-1-yl}-2-(6-methyl-pyridin-3-yl)-ethanone]
- IC50 (human CXCR3A): 0.4 nM
- IC50 (CXCR3): 658 nM

SMILES: C[C@@H]1CN(c2sc(C(F)(F)F)nc2-c2nc3ccccc3[nH]2)CCN1C(=O)Cc1ccccc1-n1nccn1 [Example 200, 1-{(R)-4-[4-(1H-Benzoimidazol-2-yl)-2-trifluoromethyl-thiazol-5-yl]-2-methyl-piperazin-1-yl}-2-(2-[1,2,3]triazol-2-yl-phenyl)-ethanone]
- IC50 (human CXCR3A): 28 nM
- IC50 (CXCR3): 627 nM

SMILES: C[C@@H]1CN(c2sc(C(F)(F)F)nc2-c2nc3ccccc3[nH]2)CCN1C(=O)Cc1cccc(-n2nccn2)c1 [Example 201, 1-{(R)-4-[4-(1H-Benzoimidazol-2-yl)-2-trifluoromethyl-thiazol-5-yl]-2-methyl-piperazin-1-yl}-2-(3-[1,2,3]triazol-2-yl-phenyl)-ethanone]
- IC50 (human CXCR3A): 2 nM
- IC50 (CXCR3): 2860 nM

SMILES: C[C@@H]1CN(c2sc(C(F)(F)F)nc2-c2nc3ccccc3[nH]2)CCN1C(=O)Cn1cc2cccnc2n1 [Example 202, 1-{(R)-4-[4-(1H-Benzoimidazol-2-yl)-2-trifluoromethyl-thiazol-5-yl]-2-methyl-piperazin-1-yl}-2-pyrazolo[3,4-b]pyridin-2-yl-ethanone]
- IC50 (human CXCR3A): 1 nM
- IC50 (CXCR3): 44 nM

SMILES: C[C@@H]1CN(c2sc(C(F)(F)F)nc2-c2nc3ccccc3[nH]2)CCN1C(=O)Cc1ccccc1-n1cccn1 [Example 203, 1-{(R)-4-[4-(1H-Benzoimidazol-2-yl)-2-trifluoromethyl-thiazol-5-yl]-2-methyl-piperazin-1-yl}-2-(2-pyrazol-1-yl-phenyl)-ethanone]
- IC50 (human CXCR3A): 5 nM
- IC50 (CXCR3): 2100 nM

SMILES: C[C@@H]1CN(c2sc(C(F)(F)F)nc2-c2nc3ccccc3[nH]2)CCN1C(=O)Cn1nccc1-c1ccccc1 [Example 204, 1-{(R)-4-[4-(1H-Benzoimidazol-2-yl)-2-trifluoromethyl-thiazol-5-yl]-2-methyl-piperazin-1-yl}-2-(5-phenyl-pyrazol-1-yl)-ethanone]
- IC50 (human CXCR3A): 6 nM
- IC50 (CXCR3): 4180 nM

SMILES: C[C@@H]1CN(c2sc(C(F)(F)F)nc2-c2nc3ccccc3[nH]2)CCN1C(=O)CN1C(=O)C(F)(F)c2ccccc21 [Example 205, 1-(2-{(R)-4-[4-(1H-Benzoimidazol-2-yl)-2-trifluoromethyl-thiazol-5-yl]-2-methyl-piperazin-1-yl}-2-oxo-ethyl)-3,3-difluoro-1,3-dihydro-indol-2-one]
- IC50 (human CXCR3A): 2 nM
- IC50 (CXCR3): 111 nM

SMILES: C[C@@H]1CN(c2sc(C(F)(F)F)nc2-c2nc3ccccc3[nH]2)CCN1C(=O)Cn1cnc2cnccc21 [Example 206, 1-{(R)-4-[4-(1H-Benzoimidazol-2-yl)-2-trifluoromethyl-thiazol-5-yl]-2-methyl-piperazin-1-yl}-2-imidazo[4,5-c]pyridin-1-yl-ethanone]
- IC50 (human CXCR3A): 2 nM
- IC50 (CXCR3): 260 nM

SMILES: C[C@@H]1CN(c2sc(C(F)(F)F)nc2-c2nc3ccccc3[nH]2)CCN1C(=O)Cn1cnc(Br)n1 [Example 207, 1-{(R)-4-[4-(1H-Benzoimidazol-2-yl)-2-trifluoromethyl-thiazol-5-yl]-2-methyl-piperazin-1-yl}-2-(3-bromo-[1,2,4]triazol-1-yl)-ethanone]
- IC50 (human CXCR3A): 1 nM
- IC50 (CXCR3): 332 nM

SMILES: C[C@@H]1CN(c2sc(C(F)(F)F)nc2-c2nc3ccccc3[nH]2)CCN1C(=O)Cc1ccccc1N1CCN(C)CC1 [Example 208, 1-{(R)-4-[4-(1H-Benzoimidazol-2-yl)-2-trifluoromethyl-thiazol-5-yl]-2-methyl-piperazin-1-yl}-2-[2-(4-methyl-piperazin-1-yl)-phenyl]-ethanone]
- IC50 (human CXCR3A): 1 nM
- IC50 (CXCR3): 310 nM

SMILES: C[C@@H]1CN(c2sc(C(F)(F)F)nc2-c2nc3ccccc3[nH]2)CCN1C(=O)Cn1cnc2c1CCN(C)C2 [Example 209, 1-{(R)-4-[4-(1H-Benzoimidazol-2-yl)-2-trifluoromethyl-thiazol-5-yl]-2-methyl-piperazin-1-yl}-2-(5-methyl-4,5,6,7-tetrahydro-imidazo[4,5-c]pyridin-1-yl)-ethanone]
- IC50 (human CXCR3A): 3 nM
- IC50 (CXCR3): 101 nM

SMILES: C[C@@H]1CN(c2sc(C(F)(F)F)nc2-c2nc3ccccc3[nH]2)CCN1C(=O)Cn1cnc2c1CN(C)CC2 [Example 210, 1-{(R)-4-[4-(1H-Benzoimidazol-2-yl)-2-trifluoromethyl-thiazol-5-yl]-2-methyl-piperazin-1-yl}-2-(5-methyl-4,5,6,7-tetrahydro-imidazo[4,5-c]pyridin-3-yl)-ethanone]
- IC50 (human CXCR3A): 1 nM
- IC50 (CXCR3): 121 nM

SMILES: Cc1nn(CC(=O)N2CCN(c3sc(C(F)(F)F)nc3-c3nc4ccccc4[nH]3)C[C@H]2C)cc1CN(C)C [Example 211, 1-{(R)-4-[4-(1H-Benzoimidazol-2-yl)-2-trifluoromethyl-thiazol-5-yl]-2-methyl-piperazin-1-yl}-2-(4-dimethylaminomethyl-3-methyl-pyrazol-1-yl)-ethanone]
- IC50 (human CXCR3A): 1 nM
- IC50 (CXCR3): 227 nM
